{"source": "patent US20230312670A1", "about": "“MYELIN OLIGODENDROCYTE GLYCOPROTEIN-SPECIFIC PEPTIDE FOR THE TREATMENT OR PREVENTION OF MULTIPLE SCLEROSIS” (LOMA LINDA UNIVERSITY, priority 2016, published 2023)", "key": {"Qa-1^b": {"target": "Qa-1^b (Mus musculus, UniProt P06339)", "sequence (P06339 21-295 limits assumed)": "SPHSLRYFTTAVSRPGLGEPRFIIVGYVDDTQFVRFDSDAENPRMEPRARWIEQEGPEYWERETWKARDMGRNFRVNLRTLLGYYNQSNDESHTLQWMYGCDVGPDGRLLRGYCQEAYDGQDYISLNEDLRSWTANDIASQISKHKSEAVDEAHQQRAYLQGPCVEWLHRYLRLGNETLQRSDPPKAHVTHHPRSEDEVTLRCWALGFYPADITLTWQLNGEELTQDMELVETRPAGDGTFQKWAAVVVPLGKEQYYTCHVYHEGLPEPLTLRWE", "sequence (P61769 21-119 partner)": "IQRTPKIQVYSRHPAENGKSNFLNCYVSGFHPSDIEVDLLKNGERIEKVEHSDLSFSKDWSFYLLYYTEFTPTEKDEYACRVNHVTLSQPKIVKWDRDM", "test": "In vitro refolding of peptide with recombinant Qa-1^b protein and β2 microglobulin", "assay_type": "binding", "conditions": "10° C., four days; size exclusion, anion exchange, tetramer formation", "procedure": "FIG. 4A-4D. MOG196 can bind to Qa-1^b and stimulate MOG196-specific Qa-1^b-restricted CD8^+ T cells. (A) MOG196 was incubated with recombinant Qa-1^b and β2 microglobulin in a protein refolding buffer at 10° C. under gentle agitation (60 rpm) for four days. The solution was separated by a size exclusion column. Peak “A” and “B” represented typical non-specific protein aggregates and correctly refolded MOG196/Qa-1^b monomer, respectively. (B) Monomers in peak B of panel “A” were further analyzed by an anion exchange chromatography. (C) Proteins in peaks “A”, “B1”, and “B2” were biotinylated and portions of the biotinylated proteins were incubated with streptavidin (SA) to examine formation of tetramers. The biotinylated proteins and corresponding tetramers were analyzed in a non-denature protein gel. Arrows show protein bands for MOG196/Qa-1^b monomers. “−”: without SA; “+”: with SA; “pk A”: peak A; “pk B1”: peak B1; “pk B2“ ” peak B2; “Std”: a protein standard. […] The CD8^+ T cells were analyzed for binding to Qa-1^b/MOG196 tetramer at days 0, 7, and 14. […]\nMOG196 binds to Qa-1^b and activates MOG196—specific Qa-1^b—restricted CD8^+ T cells in vitro. […] Subsequently, the biotinylated proteins and streptavidin-conjugated tetramers were analyzed in a non-denature protein gel. […]"}, "CD8^+ T cells": {"tested_on": "CD8^+ T cells", "test": "IFN-γ Enzyme-linked ImmunoSpot of CD8+ T cells with C1R or C1R.Qa-1^b antigen-presenting cells", "assay_type": "cell-based, K^b−/−D^b−/− mice", "conditions": "in the presence of C1R.Qa-1^b cells", "procedure": "FIG. 1A-1C. Portion of CD8^+ T cells reactive to the pool of overlapping peptides (OLPs) covering the whole length of mouse MOG was Qa-1^b restricted. (A) A schematic view of the mouse MOG OLP library. 15mer peptides across the whole length of mouse MOG (247 amino acids) and overlapped by 11 amino acids were synthesized. A pool of the 59 OLPs (“MOG_pool”) at a concentration of 4.2 μg/ml for each peptide was then generated for stimulating CD8^+ T cells purified from K^b−/−D^b−/− mice. (B) Experimental design for Enzyme-linked ImmunoSpot assay in “C”: CD8^+ T cells purified from K^b−/−D^b−/− mice were stimulated with the MOG_pool in vitro on a weekly basis. Before being stimulated each time, the CD8^+ T cells were monitored for response to the MOG_pool, using IFN-γ Enzyme-linked ImmunoSpot, in the presence of either C1R or C1R.Qa-1^b cells as antigen presenting cells. (C) Enzyme-linked ImmunoSpot data on day 7 were shown and were representative of three independent experiments. The number at the upper left corner of each well is the absolute number of IFN-γ spot forming cells (SFCs) in the corresponding well (50,000 CD8 T cells/well).\nFIG. 2A-2F. Recognition of multiple OLPs by the MOG_pool-reactive CD8^+ T cell lines depended on Qa-1^b. (A-D) MOG_pool-reactive CD8^+ T cell lines were generated as described in FIG. 1. […]"}, "[1]": {"tested_on": "Qa-1^b/MOG196 tetramer^+CD8^+ T cells", "test": "CD122 and Ly49 expression on Qa-1^b/MOG196 tetramer+ CD8+ T cells after immunization with MOG196-pulsed DC2.4 cells", "assay_type": "in vivo, C57BL/6 mice", "conditions": "intravenous MOG196-pulsed DC2.4 cells at days 0 and 10, analysis ten days after last immunization", "text": "FIG. 7A-7G. Immunization with DCs pulsed with MOG196 activates Qa-1^b/MOG196 tetramer^+ cells that specifically accumulate in cervical lymph nodes. (A) C57BL/6 mice (5 mice/group) were immunized with MOG35-55 for EAE. […] (B) Representative plots of Qa-1^b/MOG196tetramer^+ cells among CD8^+ T cells in cervical lymph nodes and spleens. (C) Cumulative data of Qa-1^b/MOG196tetramer^+ cells from five mice. *P<0.05. Two-way ANOVA test. (D) Representative plots of I-A^b/MOG38-49 tetramer^+ cells among CD8^− T cells in cervical lymph nodes and spleens. (E) Cumulative data of I-A^b/MOG38-49 tetramer^+ cells from five mice. *P<0.05. Two-way ANOVA test. (F) Experimental design for “G”: C57BL/6 mice were intravenously immunized with MOG196-pulsed DC2.4 cells at days 0 and 10. […]\nMultichromatic flow cytometry: Briefly, about 0.5-1×10^6 cells in a FACS buffer (PBS containing 1% FBS and 0.05% sodium azide) were stained with various fluorescence-conjugated antibodies specific for the desired cell surface proteins or with tetramers at 4′C for 30 min. The stained cells were washed twice in the FACS buffer before being analyzed on a BD FACSAria II.\nCD122 and Ly49 were expressed in a portion of the Qa-1^b/MOG196 tetramer+ cells. […] Expression of these two markers on the Qa-I^b/MOG196 tetramer+ cells was analyzed."}, "[2]": {"tested_on": "MOG196-specific Qa-1^b-restricted CD8^+ T cells", "test": "In vitro stimulation of CD8+ T cells with MOG196-pulsed antigen-presenting cells, Qa-1^b/MOG196 tetramer staining", "assay_type": "cell-based", "conditions": "weekly stimulation with MOG196-pulsed APCs from K^b−/−d^b−/− or C57Bl/6 mice; beginning on day 14", "procedure": "FIG. 4A-4D. MOG196 can bind to Qa-1^b and stimulate MOG196-specific Qa-1^b-restricted CD8^+ T cells. (A) MOG196 was incubated with recombinant Qa-1^b and β2 microglobulin in a protein refolding buffer at 10° C. under gentle agitation (60 rpm) for four days. The solution was separated by a size exclusion column. Peak “A” and “B” represented typical non-specific protein aggregates and correctly refolded MOG196/Qa-1^b monomer, respectively. (B) Monomers in peak B of panel “A” were further analyzed by an anion exchange chromatography. (C) Proteins in peaks “A”, “B1”, and “B2” were biotinylated and portions of the biotinylated proteins were incubated with streptavidin (SA) to examine formation of tetramers. The biotinylated proteins and corresponding tetramers were analyzed in a non-denature protein gel. Arrows show protein bands for MOG196/Qa-1^b monomers. […] The CD8^+ T cells were analyzed for binding to Qa-1^b/MOG196 tetramer at days 0, 7, and 14. […]\nMultichromatic flow cytometry: Briefly, about 0.5-1×10^6 cells in a FACS buffer (PBS containing 1% FBS and 0.05% sodium azide) were stained with various fluorescence-conjugated antibodies specific for the desired cell surface proteins or with tetramers at 4′C for 30 min. The stained cells were washed twice in the FACS buffer before being analyzed on a BD FACSAria II. […]"}}, "note": "Entries after “also recorded” stand apart in the source; their conditions may differ. Marks after values point to notes of the source that are not given here."}
{"sequence": "IICYNWLHR [MOG196]", "values": [{"measurement": "binding to Qa-1^b (refolding into MOG196/Qa-1^b/β2m monomer)", "setting": "Qa-1^b", "value": "could bind to Qa-1^b"}, {"measurement": "stimulation of an OLP105-reactive CD8^+ T cell line by truncated OLP105 peptides (IFN-γ SFCs)", "setting": "CD8^+ T cells", "value": "minimal and optimal epitope in OLP105; also recorded: highest response"}, {"measurement": "tetramer+ cells expressing CD122", "setting": "[1]", "value": "about 22.6%"}, {"measurement": "tetramer+ cells expressing both CD122 and Ly49", "setting": "[1]", "value": "about 7.2%"}, {"measurement": "Qa-1^b/MOG196 tetramer+ cells in CD8^+ T cell lines", "setting": "[2]", "value": "could be detected"}]}
